Laboratory results from ChEMBL document CHEMBL1201862, “PubChem BioAssay data set” (2004).
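Test compounds were applied to cells in 96-well plates for 48 hours at 5 doses. The concentration for 50% growth inhibition is given as GI50.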 Active and inactive are the calls of the source. Rule as the data show it: active = GI50 up to about 1.1 µM and inactive = higher.

Experiments:
Assay in all cases: growth of human tumour cells (NCI), 48 h
SK-MEL-2 = tested on: SK-MEL-2
NCI-H522 = tested on: NCI-H522
KM12 = tested on: KM12
UACC-257 = tested on: UACC-257
ACHN = tested on: ACHN
A549 = tested on: A549
SF-295 = tested on: SF-295
U-251 = tested on: U-251
EKVX = tested on: EKVX
HL-60 = tested on: HL-60
HCT-116 = tested on: HCT-116
NCI-H226 = tested on: NCI-H226
HCC 2998 = tested on: HCC 2998
OVCAR-4 = tested on: OVCAR-4
SK-MEL-28 = tested on: SK-MEL-28
TK-10 = tested on: TK-10
UACC-62 = tested on: UACC-62

SMILES	GI50 (SK-MEL-2)	GI50 (NCI-H522)	GI50 (KM12)	GI50 (UACC-257)	GI50 (ACHN)	GI50 (A549)	GI50 (SF-295)	GI50 (U-251)	GI50 (EKVX)	GI50 (HL-60)	GI50 (HCT-116)	GI50 (NCI-H226)	GI50 (HCC 2998)	GI50 (OVCAR-4)	GI50 (SK-MEL-28)	GI50 (TK-10)	GI50 (UACC-62)
CCN(CC)c1c(C(=O)/C=C/c2ccc(F)cc2)c(-c2ccccc2)nn(C)c1=O	4.66 µM (inactive)	3.57 µM (inactive)	4.85 µM (inactive)	6.89 µM (inactive)	6.9 µM (inactive)	8.69 µM (inactive)	12.2 µM (inactive)	5.98 µM (inactive)	13.8 µM (inactive)	2.9 µM (inactive)	3.87 µM (inactive)	14.7 µM (inactive)	3.3 µM (inactive)	4.24 µM (inactive)	14.1 µM (inactive)	17.7 µM (inactive)	10.3 µM (inactive)
C/C(CC(=O)Nc1cc(Cl)c(Cl)cc1Cl)=N\NS(=O)(=O)c1ccc(C)cc1	28.9 µM (inactive)	17.6 µM (inactive)	40.3 µM (inactive)	26 µM (inactive)	25.1 µM (inactive)	45.7 µM (inactive)	37.1 µM (inactive)	32 µM (inactive)	35.3 µM (inactive)	24.1 µM (inactive)	23 µM (inactive)	17.9 µM (inactive)	35.3 µM (inactive)		34.2 µM (inactive)	48.5 µM (inactive)	26.5 µM (inactive)
Cc1c2ccccc2c(=O)n2c(-c3ccccn3)cccc12	> 100 µM (inactive)	> 100 µM (inactive)	> 100 µM (inactive)	94.8 µM (inactive)	> 100 µM (inactive)	> 100 µM (inactive)	> 100 µM (inactive)	> 100 µM (inactive)	> 100 µM (inactive)	> 100 µM (inactive)	> 100 µM (inactive)	> 100 µM (inactive)	> 100 µM (inactive)	> 100 µM (inactive)	> 100 µM (inactive)	> 100 µM (inactive)	> 100 µM (inactive)
COc1ccc2ccnc(Cc3ccc(OCc4ccccc4)c(OC)c3)c2c1	20.7 µM (inactive)	22.8 µM (inactive)	18 µM (inactive)	20.8 µM (inactive)	23.6 µM (inactive)	24.4 µM (inactive)	26.4 µM (inactive)	20.9 µM (inactive)	17.9 µM (inactive)		16.1 µM (inactive)		19.3 µM (inactive)	14.2 µM (inactive)	16.7 µM (inactive)	27.9 µM (inactive)	
CCOC(=O)C1(CC)CCCCC(=O)N1 (stereo not given)					> 100 µM (inactive)	> 100 µM (inactive)	> 100 µM (inactive)	> 100 µM (inactive)	> 100 µM (inactive)	36.2 µM (inactive)			> 100 µM (inactive)	> 100 µM (inactive)	> 100 µM (inactive)	> 100 µM (inactive)	> 100 µM (inactive)
CCN(CC)Cc1cc(Nc2ccnc3ccc4nn(C)nc4c23)ccc1O		9.29 µM (inactive)	10.5 µM (inactive)	13.9 µM (inactive)	9.25 µM (inactive)	21.1 µM (inactive)	13.6 µM (inactive)	15.3 µM (inactive)		84.9 µM (inactive)	4.79 µM (inactive)	22.5 µM (inactive)	13.3 µM (inactive)	10.4 µM (inactive)	14 µM (inactive)	22.4 µM (inactive)	13.7 µM (inactive)
C[C@]12CCC3[C@@H](CC[C@@H]4c5nonc5CC[C@]34C)C1C/C(=N/O)C2=O (stereo not given in full)	1.53 µM (inactive)	24.6 µM (inactive)	> 100 µM (inactive)	> 100 µM (inactive)	41 µM (inactive)	> 100 µM (inactive)	52.2 µM (inactive)	> 100 µM (inactive)	52.5 µM (inactive)	2.12 µM (inactive)	> 100 µM (inactive)	> 100 µM (inactive)		76 µM (inactive)	27.1 µM (inactive)	51.1 µM (inactive)	63.7 µM (inactive)
Cc1c(O)c(=O)ccn1C1OC(CO)C(O)C1O (stereo not given)	> 100 µM (inactive)	> 100 µM (inactive)	> 100 µM (inactive)	> 100 µM (inactive)	> 100 µM (inactive)	> 100 µM (inactive)	> 100 µM (inactive)	> 100 µM (inactive)	> 100 µM (inactive)	17.4 µM (inactive)	62.1 µM (inactive)	> 100 µM (inactive)		> 100 µM (inactive)	> 100 µM (inactive)	68.9 µM (inactive)	96.2 µM (inactive)
Cc1cc2c(ccc3c(C)cc(=O)oc32)o1	> 100 µM (inactive)	> 83.6 µM (inactive)	> 100 µM (inactive)	> 100 µM (inactive)	> 100 µM (inactive)	> 100 µM (inactive)	> 100 µM (inactive)	> 100 µM (inactive)	> 100 µM (inactive)		> 100 µM (inactive)	> 100 µM (inactive)	> 100 µM (inactive)	> 100 µM (inactive)	> 100 µM (inactive)	> 100 µM (inactive)	> 100 µM (inactive)
COC(=O)/C(=N\O)C(C(=O)C=C(C)C)C(=O)C(=O)Nc1ccccc1C (stereo not given)	> 100 µM (inactive)	> 100 µM (inactive)	> 100 µM (inactive)	> 100 µM (inactive)	> 100 µM (inactive)	> 100 µM (inactive)	> 100 µM (inactive)	> 100 µM (inactive)	> 100 µM (inactive)	> 100 µM (inactive)	> 100 µM (inactive)	> 100 µM (inactive)	> 100 µM (inactive)	> 100 µM (inactive)	> 100 µM (inactive)	> 100 µM (inactive)	> 100 µM (inactive)
CCN(CC)C(=O)Cc1c(C(=O)N(CC)CC)c(=O)nc2sccn12	> 100 µM (inactive)	> 100 µM (inactive)	> 100 µM (inactive)	> 100 µM (inactive)	> 100 µM (inactive)	> 100 µM (inactive)	> 100 µM (inactive)	> 100 µM (inactive)	> 100 µM (inactive)	> 100 µM (inactive)	> 100 µM (inactive)	> 100 µM (inactive)	> 100 µM (inactive)	> 100 µM (inactive)	> 100 µM (inactive)	> 100 µM (inactive)	> 100 µM (inactive)
O=C(Nc1ccccc1-c1nc2ccccc2[nH]c1=O)c1ccccc1	23.5 µM (inactive)	14.8 µM (inactive)	28.7 µM (inactive)	44 µM (inactive)	20.1 µM (inactive)	25.9 µM (inactive)	20.9 µM (inactive)	23.3 µM (inactive)	25.3 µM (inactive)		20.1 µM (inactive)	25.2 µM (inactive)	15.4 µM (inactive)	19.9 µM (inactive)	43.5 µM (inactive)	17.1 µM (inactive)	26.1 µM (inactive)
C=Cc1ccc(C)[n+](C[Si](C)(C)O[Si](C)(C)C)c1	> 100 µM (inactive)	> 100 µM (inactive)	> 100 µM (inactive)	> 100 µM (inactive)	> 100 µM (inactive)	> 100 µM (inactive)	> 100 µM (inactive)	> 100 µM (inactive)	> 100 µM (inactive)		> 100 µM (inactive)	> 100 µM (inactive)	> 100 µM (inactive)	42.3 µM (inactive)	> 100 µM (inactive)		> 100 µM (inactive)
COc1cc(C(CC(OC)OC)=C(C#N)C#N)cc(OC)c1OC	21.9 µM (inactive)	13.9 µM (inactive)	18.7 µM (inactive)	18 µM (inactive)	26.7 µM (inactive)	28.8 µM (inactive)	19.5 µM (inactive)	13.3 µM (inactive)	34.9 µM (inactive)	19.5 µM (inactive)	18.2 µM (inactive)	0.485 µM (active)	18.7 µM (inactive)		36.3 µM (inactive)	58.3 µM (inactive)	26.7 µM (inactive)
O=Cc1c(O)ccc2ccc(O)c(-c3c(O)ccc4ccc(O)cc34)c12	31.8 µM (inactive)	80.9 µM (inactive)	98.4 µM (inactive)	> 100 µM (inactive)	> 100 µM (inactive)	> 100 µM (inactive)	53.1 µM (inactive)	> 100 µM (inactive)		> 100 µM (inactive)	> 100 µM (inactive)	28.6 µM (inactive)		> 100 µM (inactive)	> 100 µM (inactive)	> 100 µM (inactive)	77.8 µM (inactive)
CCn1c2ccccc2c2ccc3c(c21)C(=O)C=CC3=O	21.1 µM (inactive)	2.58 µM (inactive)	14.4 µM (inactive)	14.6 µM (inactive)	16.5 µM (inactive)	43.6 µM (inactive)	20.4 µM (inactive)	15.9 µM (inactive)	12.1 µM (inactive)	2.43 µM (inactive)	4.47 µM (inactive)	18 µM (inactive)	20.9 µM (inactive)	4.06 µM (inactive)	18.3 µM (inactive)	16.4 µM (inactive)	
COC(=O)c1nc(N)nc(O)c1CCCCCc1c(O)nc(N)nc1C(=O)OC	> 50 µM (inactive)	> 50 µM (inactive)	> 50 µM (inactive)	> 50 µM (inactive)	> 50 µM (inactive)	> 50 µM (inactive)	> 50 µM (inactive)	> 50 µM (inactive)	> 50 µM (inactive)	> 50 µM (inactive)			> 50 µM (inactive)	> 50 µM (inactive)	> 50 µM (inactive)	> 50 µM (inactive)	> 50 µM (inactive)
Cn1c2c(c3ccccc31)CCN(CCN1CCN(c3cccc(Cl)c3)CC1)C2=O		47.5 µM (inactive)			> 100 µM (inactive)	> 100 µM (inactive)		> 100 µM (inactive)	> 100 µM (inactive)	15.9 µM (inactive)	40.5 µM (inactive)				> 100 µM (inactive)	> 100 µM (inactive)	72.9 µM (inactive)
